Reference: ChEMBL document CHEMBL5252531, “2015 Philip S. Portoghese Medicinal Chemistry Lectureship. Curing Hepatitis C Virus Infection with Direct-Acting Antiviral Agents: The Arc of a Medicinal Chemistry Triumph” (J Med Chem, 2016)
Values after ≈ are worked out from the molar mass of the structure shown.

What was measured:
[1] = tested on: Pregnane X receptor (Homo sapiens); test: PXR activation
[2] = Oral bioavailability in Sprague-Dawley rat at 10 mg/kg measured after 4 hrs; format: ADME, organism-based; settings: in vivo
Hepatitis C virus [3] = test: Antiviral activity against HCV GT1a-genotype assessed as inhibition of viral replication; format: functional, organism-based, Hepacivirus hominis
Hepatitis C virus [4] = test: Antiviral activity against HCV GT1b-genotype assessed as viral growth inhibition measured after 24 hrs; format: functional, organism-based, Hepacivirus hominis; settings: for EC50: Hepatitis C virus, GT1b-genotype, 24 h
[5] = Solubility of the compound; format: physicochemical
[6] = Clearance in Wistar rat at 10 mg/kg, po measured after 4 hrs; format: ADME, organism-based; settings: in vivo
[7] = Clearance in Wistar rat at 10 mg/kg, iv measured after 4 hrs; format: ADME, organism-based; settings: in vivo
Hepatitis C virus [8] = test: Antiviral activity against HCV GT1b-genotype assessed as inhibition of viral replication measured after 24 hrs; format: functional, organism-based, Hepacivirus hominis
[9] = Aqueous solubility of the compound at pH 2.2 measured after 24 hrs; format: physicochemical
Hepatitis C virus [10] = test: Antiviral activity against HCV genotype 1a; format: functional, organism-based, Hepacivirus hominis

COc1ccc2c(c1)[C@@H]1C[C@]1(C(=O)N1CC(C)N(C)C(C)C1)Cn1c-2c(C2CCCCC2)c2ccc(C(=O)NS(=O)(=O)N(C)C)cc21 (some centres undefined)
EC50 [1]: > 50 µM | bioavailability [2]: 17% | EC50 (Hepatitis C virus [3]): 0.001 µM | EC50 (Hepatitis C virus [4]): 0.003 µM | solubility [5]: 0.034 mg/mL (≈ 51.4 µM)

COc1ccc2c(c1)C1CC1(C(=O)N1CC3CCC(C1)N3C)Cn1c-2c(C2CCCCC2)c2ccc(C(=O)NS(=O)(=O)N(C)C)cc21 (racemic)
CL [6]: 55.4 mg/mL/kg | EC50 (Hepatitis C virus [3]): 0.016 µM | EC50 (Hepatitis C virus [4]): 0.039 µM | CL [7]: 20.6 mg/mL/kg

O=C(O)c1ccc2c(C3CCCCC3)c3n(c2c1)CC(C(=O)N1CCOCC1)Cc1ccccc1-3 (racemic)
EC50 (Hepatitis C virus [8]): 0.2 µM | EC50 (Hepatitis C virus [3]): 0.002 µM

COc1ccc2c(c1)[C@@H]1C[C@]1(C(=O)N1[C@@H]3CC[C@H]1CN(C)C3)Cn1c-2c(C2CCCCC2)c2ccc(C(=O)NS(=O)(=O)N(C)C)cc21 [BECLABUVIR]
solubility at 24 h [9]: > 1.6 mg/mL | EC50 (Hepatitis C virus [10]): 0.2 µM | Activity (Hepatitis C virus [4]; time 24 hrs): 1.3 log10 IU/mL
